Values quoted from earlier work, collected in US11147946B2, “Venous access catheters and methods for portal venous system catheterization” (THE REGENTS OF THE UNIVERSITY OF COLORADO, A BODY CORPORATE, priority 2014, dated 2021).
Each block holds one molecule with its values, some of them ahead of it. Numbered stars: 1 amine (or outer) side, 2 acyl side, 3 side chain; on linkers, the order of the positions; unused ones are H or OH. Square brackets hold non-standard residues; d marks the D form. Side chains are listed from the residue outwards. Peptide text beside a SMILES is read from it. * marks the point of attachment. Ethylenediamine = C(CN[*:2])N[*:1]; Hyp = O=C(O)[C@@H]1C[C@@H](O)CN1; Phg = N[C@H](C(=O)O)c1ccccc1; CO = O=C([*:1])[*:2]; Bn = c1ccc(C*)cc1

How the values were obtained:
portal hypertension = details: compared with propranolol, cirrhosis
SSTR3 = SSTR3 (Homo sapiens, UniProt P32745)
SSTR2 = SSTR2 (Homo sapiens, UniProt P30874)
SSTR4 = SSTR4 (Homo sapiens, UniProt P31391)
SSTR1 = SSTR1 (Homo sapiens, UniProt P30872)
SSTR5 = SSTR5 (Homo sapiens, UniProt P35346)
[1] = system: human breast (MCF7) carcinoma cell line
[2] = system: human pancreas (BxPC-3) carcinoma cell line
[3] = system: human colon (Colo205) carcinoma cell line
human tumour = details: in vivo xenograft and orthotopic models
[4] = target: (Homo sapiens, UniProt P08069)
Sequence of (Homo sapiens, UniProt P08069) (P08069 31-736 limits assumed): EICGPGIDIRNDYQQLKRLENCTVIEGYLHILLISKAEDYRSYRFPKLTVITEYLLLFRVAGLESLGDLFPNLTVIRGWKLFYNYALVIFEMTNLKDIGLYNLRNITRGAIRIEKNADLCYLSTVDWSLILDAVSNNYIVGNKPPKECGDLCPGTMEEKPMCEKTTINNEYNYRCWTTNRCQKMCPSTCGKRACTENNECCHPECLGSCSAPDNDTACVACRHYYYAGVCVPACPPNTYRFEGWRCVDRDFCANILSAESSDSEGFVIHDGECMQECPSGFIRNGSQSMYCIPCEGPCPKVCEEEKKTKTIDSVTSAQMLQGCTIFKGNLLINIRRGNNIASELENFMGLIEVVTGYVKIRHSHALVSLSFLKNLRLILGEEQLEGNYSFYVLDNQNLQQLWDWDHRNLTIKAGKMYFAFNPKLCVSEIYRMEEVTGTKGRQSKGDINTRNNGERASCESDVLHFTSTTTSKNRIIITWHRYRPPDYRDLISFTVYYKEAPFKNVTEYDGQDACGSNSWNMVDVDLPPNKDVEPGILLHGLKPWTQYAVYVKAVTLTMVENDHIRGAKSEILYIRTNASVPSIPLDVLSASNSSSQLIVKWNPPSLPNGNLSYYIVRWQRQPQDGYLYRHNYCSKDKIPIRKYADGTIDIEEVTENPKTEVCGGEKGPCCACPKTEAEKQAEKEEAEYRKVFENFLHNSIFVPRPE
Sequence of (Homo sapiens, UniProt P08069) (P08069 741-1367 limits assumed): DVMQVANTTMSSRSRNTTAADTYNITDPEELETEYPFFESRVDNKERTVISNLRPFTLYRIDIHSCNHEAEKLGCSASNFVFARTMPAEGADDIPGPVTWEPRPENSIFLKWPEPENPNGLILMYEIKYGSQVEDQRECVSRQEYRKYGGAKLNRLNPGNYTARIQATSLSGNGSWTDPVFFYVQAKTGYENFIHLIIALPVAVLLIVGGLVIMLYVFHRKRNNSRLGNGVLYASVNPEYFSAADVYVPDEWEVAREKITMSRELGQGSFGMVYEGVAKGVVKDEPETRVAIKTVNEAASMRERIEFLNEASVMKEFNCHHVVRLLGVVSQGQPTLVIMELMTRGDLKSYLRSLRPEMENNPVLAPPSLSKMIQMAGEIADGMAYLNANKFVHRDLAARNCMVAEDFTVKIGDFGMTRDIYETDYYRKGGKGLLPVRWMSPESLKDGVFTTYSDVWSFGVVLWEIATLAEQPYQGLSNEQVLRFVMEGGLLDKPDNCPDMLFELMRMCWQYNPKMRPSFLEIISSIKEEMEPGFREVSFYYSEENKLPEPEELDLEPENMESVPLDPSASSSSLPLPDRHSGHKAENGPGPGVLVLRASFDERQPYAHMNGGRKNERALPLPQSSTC

Sequence of SSTR2 (P30874 whole entry): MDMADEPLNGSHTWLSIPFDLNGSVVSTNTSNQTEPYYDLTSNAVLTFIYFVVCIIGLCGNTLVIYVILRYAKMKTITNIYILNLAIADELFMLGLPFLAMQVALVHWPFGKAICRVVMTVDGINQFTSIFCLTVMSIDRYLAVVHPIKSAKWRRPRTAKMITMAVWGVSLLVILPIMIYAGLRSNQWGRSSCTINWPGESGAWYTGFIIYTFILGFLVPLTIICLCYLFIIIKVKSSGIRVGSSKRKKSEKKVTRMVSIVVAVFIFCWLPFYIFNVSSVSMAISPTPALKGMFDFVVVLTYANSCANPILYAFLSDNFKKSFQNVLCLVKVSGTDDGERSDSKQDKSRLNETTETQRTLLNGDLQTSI
Sequence of SSTR3 (P32745 whole entry): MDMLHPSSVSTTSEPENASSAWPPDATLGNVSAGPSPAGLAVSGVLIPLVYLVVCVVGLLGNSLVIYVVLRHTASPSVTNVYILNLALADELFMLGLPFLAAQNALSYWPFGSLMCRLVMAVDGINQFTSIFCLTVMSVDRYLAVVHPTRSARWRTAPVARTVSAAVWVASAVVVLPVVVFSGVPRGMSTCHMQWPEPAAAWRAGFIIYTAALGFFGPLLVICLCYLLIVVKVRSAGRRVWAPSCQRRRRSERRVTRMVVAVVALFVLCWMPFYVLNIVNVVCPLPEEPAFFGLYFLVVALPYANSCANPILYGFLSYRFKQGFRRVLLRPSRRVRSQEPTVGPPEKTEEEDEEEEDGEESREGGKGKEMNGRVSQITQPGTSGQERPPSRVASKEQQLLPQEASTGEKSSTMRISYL
Sequence of SSTR1 (P30872 whole entry): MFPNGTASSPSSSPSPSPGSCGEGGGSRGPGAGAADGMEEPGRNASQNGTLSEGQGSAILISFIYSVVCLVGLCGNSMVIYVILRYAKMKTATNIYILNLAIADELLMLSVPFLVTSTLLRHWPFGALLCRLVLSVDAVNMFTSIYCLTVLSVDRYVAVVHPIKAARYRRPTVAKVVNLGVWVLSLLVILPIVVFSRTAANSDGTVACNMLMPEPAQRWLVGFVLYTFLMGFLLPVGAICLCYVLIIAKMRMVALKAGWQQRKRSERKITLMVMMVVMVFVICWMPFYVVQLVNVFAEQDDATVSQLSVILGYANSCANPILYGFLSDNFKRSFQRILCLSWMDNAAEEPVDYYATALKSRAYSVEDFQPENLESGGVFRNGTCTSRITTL
Sequence of SSTR4 (P31391 whole entry): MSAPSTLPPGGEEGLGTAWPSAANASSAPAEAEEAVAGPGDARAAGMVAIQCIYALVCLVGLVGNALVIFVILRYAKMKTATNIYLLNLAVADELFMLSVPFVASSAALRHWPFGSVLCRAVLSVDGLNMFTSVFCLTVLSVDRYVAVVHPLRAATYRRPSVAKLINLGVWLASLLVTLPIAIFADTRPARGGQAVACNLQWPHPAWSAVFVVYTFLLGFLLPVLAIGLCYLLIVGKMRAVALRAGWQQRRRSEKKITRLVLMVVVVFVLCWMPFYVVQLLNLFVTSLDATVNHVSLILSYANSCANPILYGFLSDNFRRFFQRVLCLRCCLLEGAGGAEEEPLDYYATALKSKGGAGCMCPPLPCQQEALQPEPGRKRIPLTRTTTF
Sequence of SSTR5 (P35346 whole entry): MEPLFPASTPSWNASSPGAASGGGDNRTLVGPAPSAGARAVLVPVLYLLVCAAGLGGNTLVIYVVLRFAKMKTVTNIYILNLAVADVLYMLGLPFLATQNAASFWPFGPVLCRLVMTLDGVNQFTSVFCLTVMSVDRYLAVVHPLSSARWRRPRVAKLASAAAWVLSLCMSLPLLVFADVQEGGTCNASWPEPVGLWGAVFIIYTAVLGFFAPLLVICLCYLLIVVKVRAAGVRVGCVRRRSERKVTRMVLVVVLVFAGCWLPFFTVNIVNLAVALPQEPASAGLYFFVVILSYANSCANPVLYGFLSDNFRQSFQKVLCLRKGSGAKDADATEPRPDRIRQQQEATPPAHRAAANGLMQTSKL

Molecule: COc1ccccc1OCCNCC(O)COc1cccc2[nH]c3ccccc3c12 (stereo not shown) [carvedilol]
reduction of portal hypertension (PH) (portal hypertension): more effective than propranolol

Molecule: CC(C)[C@@H]1NC(=O)[C@H](CCCCN)NC(=O)[C@@H](Cc2c[nH]c3ccccc23)NC(=O)[C@H](Cc2ccc(O)cc2)NC(=O)[C@@H](NC(=O)[C@H](N)Cc2ccc3ccccc3c2)CSSC[C@@H](C(=O)N[C@H](C(N)=O)[C@@H](C)O)NC1=O [lanreotide]
binding affinity to SSTR3 (SSTR3): reduced or no binding | binding affinity to SSTR2 (SSTR2): high affinity | binding affinity to SSTR4 (SSTR4): reduced or no binding | binding affinity to SSTR1 (SSTR1): reduced or no binding

Molecule: IMC-A12: fully human monoclonal IgG1 antibody, anti-IGF1R
cell apoptosis [1]: induces cell apoptosis | cell proliferation [1]: inhibits cell proliferation | cell apoptosis [2]: induces cell apoptosis | cell proliferation [2]: inhibits cell proliferation | cell apoptosis [3]: induces cell apoptosis | cell proliferation [3]: inhibits cell proliferation | antitumour activity (human tumour): shown activity against a human tumour | binding affinity [4]: high affinity

More lines, now with the values ahead:

binding affinity to SSTR3 (SSTR3): reduced affinity | binding affinity to SSTR2 (SSTR2): high affinity
Molecule: C[C@@H](O)[C@@H]1NC(=O)[C@H](CCCCN)NC(=O)[C@@H](Cc2c[nH]c3ccccc23)NC(=O)[C@H](Cc2ccccc2)NC(=O)[C@@H](NC(=O)[C@H](N)Cc2ccccc2)CSSC[C@@H](C(=O)N[C@H](CO)[C@@H](C)O)NC1=O [octreotide]

binding affinity to SSTR5 (SSTR5): high affinity | binding affinity to SSTR3 (SSTR3): decreased affinity | binding affinity to SSTR2 (SSTR2): decreased affinity | binding affinity to SSTR1 (SSTR1): decreased affinity
Molecule: NCCCC[C@@H]1NC(=O)[C@@H](Cc2c[nH]c3ccccc23)NC(=O)[C@H](c2ccccc2)NC(=O)[C@@H]2C[C@@H](OC(=O)NCCN)CN2C(=O)[C@H](Cc2ccccc2)NC(=O)[C@H](Cc2ccc(OCc3ccccc3)cc2)NC1=O [pasireotide] (cyclo([Hyp]([CO-Ethylenediamine])[Phg][dW]KY(Bn)F))
